# According to patent publication US4402948A, “Steroid glycoside compounds and methods of use” (Nippon Shinyaku Co., Ltd., priority 1980, dated 1983):
# Where two headings read alike, the source gives them in different places.
# Experiments:
# [1] = Acute toxicity (LD50, Litchfield-Wilcoxon method); conditions: mouse, in vivo, male mice
# Description: LD50 values of oxidized derivatives of steryl-β-D-glucoside and acetyl derivatives thereof were calculated by Litchfield-Wilcoxon method using male mice.
# [2] = test system: bleeding at the end of mouse's tail; test: Hemostatic effects: influences on bleeding at the end of mouse's tail; type: in vivo; conditions: vs untreated control
# Description: Influences on bleeding at the end of mouse's tail:
# Groups each comprising 10 male mice were employed. According to a method of Motohashi, et al. [Journal of Tokyo Jikei-kai Medical College, 75 (5) (1959)], the end of tail (1 cm) of each mouse was cut out with a sharp surgical knife and the blood threading from the wound into water was observed. A time required until the bleeding stopped completely was measured and rate of readuction of the bleeding time as compared with that of untreated control group was calculated.
# [3] = test system: hemorrage in mouse's lung; test: Capillary stabilizing effects: inhibiting hemorrage in mouse's lung caused by pressure reduction; type: in vivo; conditions: pressure reduction to 50±0.5 mmHg/15 sec., score method; for ED50: Mus musculus, oral administration
# Description: C. Capillary stabilizing effects:
# Effects of inhibiting hemorrage in mouse's lung:
# Degree of hemorrage in mouse's lung caused by pressure reduction to 50±0.5 mmHg/15 sec. was determined by a method of G. J. Mojovski, et al. [J. Pharm. Exp. Therap., 80, 1, (1944)] (score method). From the inhibition rate calculated as compared with untreated control group, ED50 of the sample was calculated.
# [4] = ip, intraperitoneal administration, read-out: LD50 Intraperitoneal administration
# [5] = oral administration, read-out: LD50 Oral administration
Compound,"LD50 [1, 4] [mg/kg]","LD50 [1, 5] [mg/kg]",Reduction rate (of bleeding time) ([2]; 0.1 mg/Kg i.p.) [%],ED50 [3] [mg/kg],further results
CCC(C=CC(C)C1CCC2C3C(O)C=C4CC(OC5OC(CO)C(O)C(O)C5O)CCC4(C)C3CCC12C)C(C)C (centres unmarked) [Compound 16],> 15000,> 12000,23,–,–
CCC(C=CC(C)C1CCC2C3C(=O)C=C4CC(OC5OC(CO)C(O)C(O)C5O)CCC4(C)C3CCC12C)C(C)C (centres unmarked) [Compound 10],–,–,–,43,–
"CC(C)CCCC(C)C1CCC2C3C(=O)C=C4CC(OC5OC(CO)C(O)C(O)C5O)CCC4(C)C3CCC12C [Compound 8, (7-Ketocholesteryl)-β-D-glucopyranoside]",> 15000,> 12000,36,–,–
"CN1C2=CC(=O)/C(=N\NC(N)=O)C=C2CC1S(=O)(=O)[O-].[Na+] (centres unmarked) [Sodium carbazochromesulfonate, reference compound]",–,–,–,–,Reduction rate (of bleeding time) ([2]; 10.0 mg/Kg i.p.): 21%; ED50 oral administration [3]: > 400 mg/kg
"CC(=O)OCC1OC(OC2CCC3(C)C(=CC(O)C4C3CCC3(C)C(C(C)CCCC(C)C)CCC43)C2)C(OC(C)=O)C(OC(C)=O)C1OC(C)=O [Compound 11, (7-hydroxycholesteryl)-2,3,4,6-tetra-0-acetyl-β-D-glucopyranoside]",–,–,18,–,–
"CC(C)CCCC(C)C1CCC2C3C(O)C=C4CC(OC5OC(CO)C(O)C(O)C5O)CCC4(C)C3CCC12C [Compound 14, (7-Hydroxycholesteryl)-β-D-glucopyranoside]",–,–,–,38,–
CCC(CCC(C)C1CCC2C3C(O)C=C4CC(OC5OC(COC(C)=O)C(OC(C)=O)C(OC(C)=O)C5OC(C)=O)CCC4(C)C3CCC12C)C(C)C (centres unmarked) [Compound 12],> 15000,> 12000,–,–,–
CCC(CCC(C)C1CCC2C3C(=O)C=C4CC(OC5OC(COC(C)=O)C(OC(C)=O)C(OC(C)=O)C5OC(C)=O)CCC4(C)C3CCC12C)C(C)C (centres unmarked) [Compound 6],–,–,22,62,–
"CC(=O)OCC1OC(OC2CCC3(C)C(=CC(=O)C4C3CCC3(C)C(C(C)CCCC(C)C)CCC43)C2)C(OC(C)=O)C(OC(C)=O)C1OC(C)=O [Compound 5, (7-Ketocholesteryl)-2,3,4,6-tetra-0-acetyl-β-D-glucopyranoside]",> 15000,> 12000,–,–,–
